Test results from the NIST ThermoML archive (doi:10.1021/je1010054).
Numbers after ± are expanded uncertainties.

Details: Crystal; visual observation

O=C1C=CC(=O)N1c1cc(F)c(Br)c(F)c1 [1-(4-bromo-3,5-difluorophenyl)-1H-pyrrole-2,5-dione]
Normal melting temperature: 197.50 ± 0.53 °C
